Measurements reported in patent US11357779B2 (G1 Therapeutics, Inc., priority 2018, dated 2022).
Like-named read-outs stand apart in the source and are kept apart here.

Assay: Plasma concentration versus time of Compound I and metabolite Compound III in patients dosed QD or BID with Form B of Compound II plus fulvestrant
Type: in vivo, human
Details: human, plasma, oral; for concentration at 0 h / concentration at 1 h / concentration at 2 h / concentration at 3 h / concentration at 4 h / concentration at 6 h / concentration at 8 h / concentration at 10 h / concentration at 12 h / concentration at 24 h: read-out: Compound I Concentration; for concentration at 8 day / concentration at 15 day / concentration at 22 day: Cohort 4, 500 mg QD of Form B; for concentration at 8 day: Day 8; for concentration at 15 day: Day 15; for concentration at 22 day: Day 22
Source text: Patients were enrolled into 1 of 2 parallel, independently operating, dose-escalation dosing cohorts with Form B of Compound II administered continuously either once daily (QD) or twice daily (BID) with food with fixed-dose fulvestrant (intramuscularly every 14 days for the first three injections and then every 28 days). Pre- or perimenopausal patients also received goserelin for the duration of study treatment. A […] agonist was started at least 28 days before the first dose of Form B, and those patients who were taking another LHRH agonist were switched to goserelin on Day 1. Patients were split into […] cohorts providing once a day (QD) dosing of 200 mg, 300 mg, 400 mg, 500 mg, or 650 mg of Form B, or twice a day (BID) dosing of 100 mg, 150 mg, or 200 mg of Form B. The second dose in BID cohorts was not administered in the evening until at least 12 hours after the initial morning dose of Form B. The dosing cohorts for Form B of Compound II are provided in Table 1.
Blood samples were collected at the following time points relative to the morning dose of Form B at Day 1 and at Day 29: pre-dose (0 hour) and 1, 2, 3, 4, 6, 8, 10, 12 (prior to the evening dose in the BID cohorts), and 24 (prior to the next day's morning dose) hours after dosing. A 5-minute time window was allowed for samples collected between the predose and 3 hours after Form B dosing. A 15-minute window was allowed for samples collected between 4 to 12 hours after Form B dosing. A 1-hour window was allowed for the sample collected 24 hours after Form B dosing. Blood samples for Compound I PK trough levels were collected pre-dose at Day 8, Day 15, and Day 22 prior to the morning administration of Compound I. Plasma concentrations of Compound I and its metabolite, Compound III, were measured using validated methods.
Analysis of plasma concentration versus time data for calculation of standard pharmacokinetic (PK) parameters following oral administration was conducted using Phoenix WinNonlin version 6.3 using actual blood sampling times.

[1] = 500 mg, read-out: Trough Compound I Concentration, Max
[2] = 500 mg, read-out: Trough Compound I Concentration, Median

Question: With CC(C)N1CCN(c2ccc(Nc3ncc4cc5n(c4n3)C3(CCCCC3)CNC5=O)nc2)CC1 [Compound I, 2′-((5-(4-isopropylpiperazin-1-yl)pyridin-2-yl)amino)-7′,8′-dihydro-6′H-spiro[cyclohexane-1,9′-pyrazino[1′,2′:1,5]pyrrolo[2,3-d]pyrimidin]-6′-one] as the compound, how does the concentration at 0 h (500 mg, 500 mg QD of Form B, Day 1, 0.0 h, Median) read?
Answer: 0 µg/mL

Question: What about the concentration at 1 h (500 mg, 500 mg QD of Form B, Day 1, 1.0 h, Mean) of the same compound?
Answer: 0.0104 µg/mL

Question: And the concentration at 1 h (500 mg, 500 mg QD of Form B, Day 1, 1.0 h, Median)?
Answer: 0.0102 µg/mL

Question: What about the concentration at 2 h (500 mg, 500 mg QD of Form B, Day 1, 2.0 h, Mean) of the same compound?
Answer: 0.0185 µg/mL

Question: And the concentration at 2 h (500 mg, 500 mg QD of Form B, Day 1, 2.0 h, Median)?
Answer: 0.0181 µg/mL

Question: And the concentration at 3 h (500 mg, 500 mg QD of Form B, Day 1, 3.0 h, Mean)?
Answer: 0.0343 µg/mL

Question: And the concentration at 3 h (500 mg, 500 mg QD of Form B, Day 1, 3.0 h, Median)?
Answer: 0.0274 µg/mL

Question: What about the concentration at 4 h (500 mg, 500 mg QD of Form B, Day 1, 4.0 h, Mean) of the same compound?
Answer: 0.0354 µg/mL

Question: And the concentration at 4 h (500 mg, 500 mg QD of Form B, Day 1, 4.0 h, Median)?
Answer: 0.0353 µg/mL

Question: What about the concentration at 6 h (500 mg, 500 mg QD of Form B, Day 1, 6.0 h, Mean) of the same compound?
Answer: 0.0465 µg/mL

Question: And the concentration at 6 h (500 mg, 500 mg QD of Form B, Day 1, 6.0 h, Median)?
Answer: 0.0456 µg/mL

Question: What about the concentration at 8 h (500 mg, 500 mg QD of Form B, Day 1, 8.0 h, Mean) of the same compound?
Answer: 0.0406 µg/mL

Question: And the concentration at 8 h (500 mg, 500 mg QD of Form B, Day 1, 8.0 h, Median)?
Answer: 0.0423 µg/mL

Question: What about the concentration at 10 h (500 mg, 500 mg QD of Form B, Day 1, 10.0 h, Mean) of the same compound?
Answer: 0.0322 µg/mL

Question: What about the concentration at 10 h (500 mg, 500 mg QD of Form B, Day 1, 10.0 h, Median) of the same compound?
Answer: 0.0334 µg/mL

Question: What about the concentration at 12 h (500 mg, 500 mg QD of Form B, Day 1, 12.0 h, Mean) of the same compound?
Answer: 0.0278 µg/mL

Question: And the concentration at 12 h (500 mg, 500 mg QD of Form B, Day 1, 12.0 h, Median)?
Answer: 0.0283 µg/mL

Question: And the concentration at 24 h (500 mg, 500 mg QD of Form B, Day 1, […], Mean)?
Answer: 0.00893 µg/mL

Question: And the concentration at 24 h (500 mg, 500 mg QD of Form B, Day 1, […], Median)?
Answer: 0.00717 µg/mL

Question: What about the concentration at 0 h (500 mg, 500 mg QD of Form B, Day 29, 0.0 h, Mean) of the same compound?
Answer: 0.0144 µg/mL

Question: And the concentration at 0 h (500 mg, 500 mg QD of Form B, Day 29, 0.0 h, Median)?
Answer: 0.0153 µg/mL

Question: What about the concentration at 1 h (500 mg, 500 mg QD of Form B, Day 29, 1.0 h, Mean) of the same compound?
Answer: 0.0212 µg/mL

Question: And the concentration at 1 h (500 mg, 500 mg QD of Form B, Day 29, 1.0 h, Median)?
Answer: 0.0176 µg/mL

Question: What about the concentration at 2 h (500 mg, 500 mg QD of Form B, Day 29, 2.0 h, Mean) of the same compound?
Answer: 0.0342 µg/mL

Question: What about the concentration at 2 h (500 mg, 500 mg QD of Form B, Day 29, 2.0 h, Median) of the same compound?
Answer: 0.0338 µg/mL

Question: And the concentration at 3 h (500 mg, 500 mg QD of Form B, Day 29, 3.0 h, Mean)?
Answer: 0.0403 µg/mL

Question: What about the concentration at 3 h (500 mg, 500 mg QD of Form B, Day 29, 3.0 h, Median) of the same compound?
Answer: 0.0414 µg/mL

Question: What about the concentration at 4 h (500 mg, 500 mg QD of Form B, Day 29, 4.0 h, Mean) of the same compound?
Answer: 0.0418 µg/mL

Question: And the concentration at 4 h (500 mg, 500 mg QD of Form B, Day 29, 4.0 h, Median)?
Answer: 0.0449 µg/mL

Question: And the concentration at 6 h (500 mg, 500 mg QD of Form B, Day 29, 6.0 h, Mean)?
Answer: 0.0415 µg/mL

Question: What about the concentration at 6 h (500 mg, 500 mg QD of Form B, Day 29, 6.0 h, Median) of the same compound?
Answer: 0.0432 µg/mL

Question: What about the concentration at 8 h (500 mg, 500 mg QD of Form B, Day 29, 8.0 h, Mean) of the same compound?
Answer: 0.0341 µg/mL

Question: And the concentration at 8 h (500 mg, 500 mg QD of Form B, Day 29, 8.0 h, Median)?
Answer: 0.0335 µg/mL

Question: And the concentration at 10 h (500 mg, 500 mg QD of Form B, Day 29, 10.0 h, Mean)?
Answer: 0.0267 µg/mL

Question: What about the concentration at 10 h (500 mg, 500 mg QD of Form B, Day 29, 10.0 h, Median) of the same compound?
Answer: 0.0256 µg/mL

Question: What about the concentration at 12 h (500 mg, 500 mg QD of Form B, Day 29, 12.0 h, Mean) of the same compound?
Answer: 0.0244 µg/mL

Question: What about the concentration at 12 h (500 mg, 500 mg QD of Form B, Day 29, 12.0 h, Median) of the same compound?
Answer: 0.0252 µg/mL

Question: What about the concentration at 24 h (500 mg, 500 mg QD of Form B, Day 29, […], Mean) of the same compound?
Answer: 0.0125 µg/mL

Question: What about the concentration at 24 h (500 mg, 500 mg QD of Form B, Day 29, […], Median) of the same compound?
Answer: 0.013 µg/mL

Question: And the concentration at 8 day [1]?
Answer: 0.0235 µg/mL

Question: And the concentration at 8 day [2]?
Answer: 0.0172 µg/mL

Question: And the concentration at 15 day [1]?
Answer: 0.0328 µg/mL

Question: And the concentration at 15 day [2]?
Answer: 0.0239 µg/mL

Question: And the concentration at 22 day [1]?
Answer: 0.0273 µg/mL

Question: And the concentration at 22 day [2]?
Answer: 0.0177 µg/mL

Question: What about the concentration at 0 h (650 mg, 650 mg QD of Form B, Day 1, 0.0 h, Mean) of the same compound?
Answer: 0 µg/mL

Question: And the concentration at 0 h (650 mg, 650 mg QD of Form B, Day 1, 0.0 h, Median)?
Answer: 0 µg/mL

Question: And the concentration at 1 h (650 mg, 650 mg QD of Form B, Day 1, 1.0 h, Mean)?
Answer: 0.0127 µg/mL

Question: What about the concentration at 1 h (650 mg, 650 mg QD of Form B, Day 1, 1.0 h, Median) of the same compound?
Answer: 0.00968 µg/mL

Question: And the concentration at 2 h (650 mg, 650 mg QD of Form B, Day 1, 2.0 h, Mean)?
Answer: 0.0248 µg/mL

Question: What about the concentration at 2 h (650 mg, 650 mg QD of Form B, Day 1, 2.0 h, Median) of the same compound?
Answer: 0.0191 µg/mL

Question: And the concentration at 3 h (650 mg, 650 mg QD of Form B, Day 1, 3.0 h, Mean)?
Answer: 0.0309 µg/mL

Question: What about the concentration at 3 h (650 mg, 650 mg QD of Form B, Day 1, 3.0 h, Median) of the same compound?
Answer: 0.0316 µg/mL

Question: What about the concentration at 4 h (650 mg, 650 mg QD of Form B, Day 1, 4.0 h, Mean) of the same compound?
Answer: 0.0437 µg/mL

Question: And the concentration at 4 h (650 mg, 650 mg QD of Form B, Day 1, 4.0 h, Median)?
Answer: 0.0435 µg/mL

Question: And the concentration at 6 h (650 mg, 650 mg QD of Form B, Day 1, 6.0 h, Mean)?
Answer: 0.0527 µg/mL

Question: What about the concentration at 6 h (650 mg, 650 mg QD of Form B, Day 1, 6.0 h, Median) of the same compound?
Answer: 0.0498 µg/mL

Question: And the concentration at 8 h (650 mg, 650 mg QD of Form B, Day 1, 8.0 h, Mean)?
Answer: 0.0596 µg/mL
